Counter-ions that a name gives are not always drawn.
Tests used:
[1] = pharmacokinetics in male Sprague-Dawley rats after oral gavage; assay type: in vivo; settings: PO 50 mg/kg; for Cmax / AUC(0-t): rat, male Sprague-Dawley rats, plasma, average N=3, 70/30 Saline/PEG400; for AUC(0-t): read-out: AUC0-12
Experimental: Compounds were evaluated for pharmacokinetic profiles in male Sprague-Dawley rats at Shanghai Chempartner, Shanghai, China. Etifoxine hydrochloride and the hydrochloride salt of the compound described in example 1 were dosed to Sprague-Dawley rats via oral gavage (PO). Each compound was administered at a dose of 50 mg/kg to three rats (N=3 rats/compound; total 6 rats in the study). Each compound was formulated in 70/30 Saline/PEG400 at a concentration of 5 mg/mL (10 mL/kg injection volume/rat). Blood samples were collected from each rat at 10, 20, 30, 45 minutes and 1, 2,4 and 12 hours post-dose. Blood samples were put on ice and centrifugated to obtain plasma. Plasma samples were analyzed for concentrations of the dosed compound at each time point by LC-MS/MS using an AB-Sciex API-400 mass spectrometer. The lower limit of quantitation of each compound was 1 ng/mL. Pharmacokinetic parameters were determined by non-compartmental analysis using WinNonlin 6.2 software.

[2] = liver human microsomes stability study; assay type: in vitro ADME; settings: for half-life at 0.1 μM: human, liver microsomes
Experimental: (§1) Compounds were evaluated for liver microsome metabolic stability at Eurofins/Cerep (St. Charles, MO). […] Test compounds at a concentration of 0.1 μM were incubated for up to 60 minutes in duplicate. The microsomal protein concentration was 0.1 mg/mL. The parent compound was detected by HPLC-MS/MS analysis. The percent compound remaining was calculated by comparing the peak area of the parent compound at each time point to time zero. Half-life was estimated from the slope of the initial linear range of the logarithmic curve of parent compound remaining vs. time, assuming first order kinetics. The apparent intrinsic clearance was further calculated from the half-life value for assays with microsomes.

[3] = rat liver microsomes stability study; assay type: in vitro ADME; settings: for half-life at 0.1 μM: rat, liver microsomes
Experimental: as §1

[4] = cited from earlier work
[5] = human liver microsomes, 0.1 μM compound, 0.1 mg/mL microsomal protein, up to 60 minutes, read-out: Half-life (minutes) Experiment 1
[6] = 0.1 μM compound, 0.1 mg/mL microsomal protein, up to 60 minutes, read-out: Half-life (minutes) Experiment 2
[7] = rats, relative to etifoxine hydrochloride
[8] = same conditions, different lot of human liver microsomes, read-out: average half-life

With `CCNC1=Nc2ccc(Cl)cc2C(C)(c2ccccc2)O1` (stereo not drawn) [Etifoxine hydrochloride, 6-chloro-2-(ethylamino)-4-methyl-4-phenyl-4H-3,1-benzoxazine, reference compound] as the compound, how does the Cmax [1] read?
The Cmax was 1140 ng/mL.

And the AUC(0-t) [1]?
The AUC(0-t) was 3380 ng·h/mL.

For `CCNC1=Nc2ccc(Cl)cc2C(C)(c2ccccc2)O1` (stereo not drawn) [Etifoxine, 6-chloro-2-(ethylamino)-4-methyl-4-phenyl-4H-3,1-benzoxazine], which “Half-life (minutes) Experiment 2” value ([2]; human liver microsomes, 0.1 μM compound, 0.1 mg/mL microsomal protein, up to 60 minutes) is on record?
The value was 21.9 min.

What about the half-life at 0.1 μM [2, 5] of the same compound?
Its half-life at 0.1 μM is 23 min.

What about the “Half-life (minutes) Experiment 1” value ([3]; 0.1 μM compound, 0.1 mg/mL microsomal protein, up to 60 minutes) of the same compound?
The value was 7.7 min.

What about the half-life at 0.1 μM [3, 6] of the same compound?
Its half-life at 0.1 μM is 7.4 min.

And the half-life in humans [4]?
Its half-life in humans is 240 to 360 min.

With `[2H]C([2H])([2H])C([2H])([2H])NC1=Nc2ccc(Cl)cc2C(C)(c2ccccc2)O1` (stereo not drawn) [Example 1 hydrochloride, 6-chloro-N-(ethyl-d5)-4-methyl-4-phenyl-4H-3,1-benzoxazin-2-amine] as the compound, how does the “AUC0-12 greater than etifoxine hydrochloride” value [1, 7] read?
Its value is 2.5 times.

What about the “Cmax greater than etifoxine hydrochloride” value [1, 7] of the same compound?
Its value is 1.7 times.

What about the Cmax [1] of the same compound?
The Cmax was 1930 ng/mL.

And the AUC(0-t) [1]?
Its AUC(0-t) is 8340 ng·h/mL.

What does the source list for `[2H]C([2H])([2H])C([2H])([2H])NC1=Nc2ccc(Cl)cc2C(C)(c2ccccc2)O1` (stereo not drawn) [Example 1, 6-chloro-N-(ethyl-d5)-4-methyl-4-phenyl-4H-3,1-benzoxazin-2-amine]?
half-life longer than that of etifoxine ([2]; human liver microsomes, relative to etifoxine): about 86%; half-life at 0.1 μM [2, 5]: 39.7 min; half-life at 0.1 μM ([2]; human liver microsomes, 0.1 μM compound, 0.1 mg/mL microsomal protein, up to 60 minutes, read-out: Half-life (minutes) Experiment 2): 41.8 min; half-life at 0.1 μM ([2]; human liver microsomes, average of experiments 1 and 2, read-out: Half-life (minutes) Average): 41 min; half-life at 0.1 μM ([3]; 0.1 μM compound, 0.1 mg/mL microsomal protein, up to 60 minutes, read-out: Half-life (minutes) Experiment 1): 13.8 min; half-life at 0.1 μM [3, 6]: 13.8 min; half-life at 0.1 μM ([3]; average of experiments 1 and 2, read-out: Half-life (minutes) Average): 14 min; half-life longer than that of etifoxine ([3]; relative to etifoxine): about 75%

Which half-life at 0.1 μM [2, 8] does the source give for `[2H]c1c([2H])c([2H])c(C2(C)OC(NCC)=Nc3ccc(Cl)cc32)c([2H])c1[2H]` (stereo not drawn) [Example 6, 6-chloro-N-ethyl-4-methyl-4-(phenyl-d5)-4H-3,1-benzoxazin-2-amine] here?
Its half-life at 0.1 μM is 18 min.

For `[2H]C([2H])([2H])C1(c2ccccc2)OC(NCC)=Nc2ccc(Cl)cc21` (stereo not drawn) [Example 7, 6-chloro-N-ethyl-4-(methyl-d3)-4-phenyl-4H-3,1-benzoxazin-2-amine], which half-life at 0.1 μM [2, 8] is on record?
Its half-life at 0.1 μM is 18 min.
